US20140329863A1 (priority 2011, published 2014)
In brackets after ≈: the same amount, converted by molar mass. Read-outs that look alike come from different tables or passages of the source.

Experiments:
[1] = "rat human hepatic microsomes", NADPH with UDPGA or PBS
[2] = Multiple-dose (three-day) pharmacokinetic studies in FVB mice, drug in liquid diet; type: in vivo, mouse; details: FVB, mouse, oral, 3 days in liquid diet, 40, 80, 130, 210 mg/kg/day
Protocol: Aminothiazole analog (e.g., 4.5 g of 27) was added to 15 mL of pure PEG400, vortexed and sonicated to ensure dissolution, then stored at −4° C. until needed. This highly concentrated PEG400 solution was subsequently diluted to final dosing concentrations, where the volume added was composed of homogenized solid rodent feed, cocoa (taste masking agent), and water. Wild-type FVB mice weigh ˜25 gm and typically drink 20 mL of liquid diet per day, allowing an estimate of daily drug consumption. A single dosing cohort consisted of three mice in a shared cage and liquid diet was provided at the start of the study in sufficient volume to last for the entire three-day trial (˜200 mL). At the end of the three-day dosing period, animals were euthanized by CO2, followed by collection of plasma (cardiac puncture) and removal of whole brain. Heparinized blood was centrifuged to separate plasma and both plasma and brain samples were stored at −80° C. prior to analysis. Plasma samples were prepared for analysis by precipitating proteins and reconstituting the remaining fraction with HPLC mobile phase. Brain samples were typically prepared by four-fold dilution with water after weighing, then homogenized using bead-beater or Polytron™ resulting in a highly concentrated solution that was further diluted with mobile phase as appropriate in preparation for bioanalytical analysis using LC-MS. Analysis was by LC-MS (Shimadzu dual-HPLC pumps, C18 analytical column, with detection using an Applied Biosystems API-4000 triple quadrupole mass spectrometer).
Ten compounds were selected from among the 34 2-AMTs for three-day multiple-dose PK studies at PO doses ranging from 40-210 mg/kg. Selection was based on diversity in potency, chemical structure, and a range of physicochemical properties. We used a liquid diet to facilitate easy drug administration, as well as serve as the daily source of all water and food. This approach was chosen because the mouse bioassay studies that would be used to assess drug effects on survival would be expected to run for 110 to 400 days, or more; gavage dosing for such a long period is not feasible and more stressful to mice. For the multiple-dose PK studies, 4.5 g of the 2-AMT analogs was added to 15 mL of pure PEG400, vortexed and sonicated to ensure dissolution, then stored at −4° C. until needed. This highly concentrated PEG400 solution was subsequently diluted to final dosing concentrations and added to the rodent liquid diet, cocoa (taste-masking agent), and water.
Wild-type FVB mice weigh ˜25 g and typically drink 20 mL of liquid diet per day, allowing an estimate of daily drug consumption. A single dosing cohort consisted of three mice in a shared cage and liquid diet was provided at the start of the study in sufficient volume (˜200 mL) to last for the entire three-day period. At the end of the dosing period, animals were euthanized by CO2, followed by collection of plasma (cardiac puncture) and removal of whole brain. Samples were processed and stored as described above for the 10 mg/kg single-dose studies.
Plasma and brain homogenate samples were extracted using a protein-precipitation method and analyzed by specific LC/MS/MS methods developed for each compound dosed in vivo. The analytical method accuracy and precision were monitored by analyzing quality control (QC) samples that were prepared by the same methods as the plasma or brain homogenate samples. The brain and plasma concentration data were used to calculate the maximal concentration (Cmax), area under the concentration-time curve (AUClast), and absolute bioavailability (% F) by noncompartmental analysis with sparse sampling performed using Phoenix WinNonlin 6.1 software (Pharsight, Mountain View, Calif.).

[3] = Hepatic microsomal stability, rat
[4] = Hepatic microsomal stability, mouse; details: for half-life at 1 μM: CD-1, mouse, pH 7.4
[5] = Hepatic microsomal stability, human; details: for half-life at 1 μM: human, pH 7.4
[6] = Multidose (three-day) pharmacokinetics in liquid diet in FVB mice; details: FVB, mouse, in vivo
[7] = system: PrP^Sc in dividing ScN2a-cl3 cells; type: cell-based, mouse
PrP^C in T98G cells = type: cell-based, human
PrP^C in IMR32 cells = type: cell-based, human
T98G cells = assay: cells; type: cell-based, human; details: calcein, T98G cells
IMR32 cells = type: cell-based, human
[8] = brain, read-out: brain concentration
[9] = plasma, read-out: plasma concentration
[10] = cell culture media, plasma or biological fluid
[11] = 40 mg/kg, Plasma Concentration (Css), three-day dosing in liquid diet, plasma
[12] = 80 mg/kg, Brain Concentration (Css), three-day dosing in liquid diet, brain
[13] = 80 mg/kg, Plasma Concentration (Css), three-day dosing in liquid diet, plasma
[14] = 130 mg/kg, Brain Concentration (Css), three-day dosing in liquid diet, brain
[15] = 130 mg/kg, Plasma Concentration (Css), three-day dosing in liquid diet, plasma
[16] = 210 mg/kg, Brain Concentration (Css), three-day dosing in liquid diet, brain
[17] = 210 mg/kg, Plasma Concentration (Css), three-day dosing in liquid diet, plasma
[18] = Brain and plasma concentrations, 40, 80, 130 and 210 mg/kg/day for 3 days

O=[N+]([O-])c1ccc(O)cc1 [4-Nitrophenol, reference compound]
T1/2, control incubations [1]: 0.333 h

COc1ccc(-c2csc(Nc3cc4ccccc4cn3)n2)cc1OC [IND46, [4-(3,4-Dimethoxy-phenyl)-thiazol-2-yl]-isoquinolin-3-yl-amine]
concentration at 3 days [2, 8]: ≤ 1000 nM
concentration at 3 days [2, 9]: ≤ 1000 nM
solubility in FaSSIF (in words) (fasted-state simulated intestinal fluid): lower solubility
solubility at pH 2.0 (in words) (pH 2 (HCl) buffer): lower solubility
solubility (physchem; FaSSIF): 5 µM (≈ 1.82 µg/mL)
solubility (physchem; [10]): 174 µM (≈ 63.2 µg/mL)
solubility (physchem; pH 2 (HCl) buffer, pH 2, simulated gastric fluid): < 1 µM
solubility (physchem; pH 7.4 (phosphate) buffer, pH 7.4, aqueous buffer): < 1 µM
half-life at 1 μM ([3]; Sprague-Dawley, rat, […], pH 7.4): > 1 h
% remaining after a 60-min incubation, Rat ([3]; […], 60-min incubation): 61%
t1/2 Rat (extrapolated) ([3]; rat microsomes, * extrapolated): 83* min
half-life at 1 μM ([4]; liver microsomes): 1.25 h
half-life at 1 μM ([4]; mouse liver microsomes): > 1 h
% remaining after a 60-min incubation, Mouse ([4]; mouse liver microsomes, 60-min incubation): 58%
% remaining after a 60-min incubation, Human ([5]; human liver microsomes, 60-min incubation): 83%
half-life at 1 μM ([5]; human liver microsomes): > 1 h
half-life at 1 μM ([5]; liver microsomes): > 1 h
concentration at 3 days ([6]; 40 mg/kg, Brain Concentration (Css), three-day dosing in liquid diet, brain): 30 ± 30 nM
concentration at 3 days [6, 11]: 50 ± 20 nM
concentration at 3 days [6, 12]: 60 ± 70 nM
concentration at 3 days [6, 13]: 60 ± 30 nM
concentration at 3 days [6, 14]: 140 ± 40 nM
concentration at 3 days [6, 15]: 80 ± 40 nM
concentration at 3 days [6, 16]: 320 ± 110 nM
concentration at 3 days [6, 17]: 140 ± 30 nM
concentration at 3 days [6, 18]: ≤ 1000 nM

c1ccc2cc(Nc3nc(-c4cc5ccccc5o4)cs3)ncc2c1 [IND91, (4-Benzofuran-2-yl-thiazol-2-yl)-isoquinolin-3-yl-amine]
concentration at 3 days [2, 8]: ≤ 1000 nM
concentration at 3 days [2, 9]: ≤ 1000 nM
EC50 ([7]; AMT analogs tested for potency): 923 nM
EC50 ([7]; Table 29, 2-AMT analogs tested for potency, usually n = 3 or more): 923 nM
solubility (physchem; [10]): 151 µM (≈ 51.9 µg/mL)
concentration at 3 days [6, 11]: 260 ± 130 nM
concentration at 3 days [6, 12]: 190 ± 90 nM
concentration at 3 days [6, 13]: 1550 ± 360 nM
concentration at 3 days [6, 14]: 260 ± 120 nM
concentration at 3 days [6, 15]: 1740 ± 310 nM
concentration at 3 days [6, 16]: 280 ± 40 nM
concentration at 3 days [6, 17]: 3060 ± 560 nM
concentration at 3 days [6, 18]: ≤ 1000 nM

CCc1ccc(C2C(C#N)=C(N)Oc3cc(N(C)C)ccc32)cc1 (stereo not drawn) [IND-0020681]
% Inhibition: SPC (T98G) (PrP^C in T98G cells): MW: 319.4 % Inhibition: SPC (IMR32): 48 Calcein: 39 SPC (T98G): 43 Calcein: 21
% Inhibition: SPC (IMR32) (PrP^C in IMR32 cells): MW: 319.4 % Inhibition: SPC (IMR32): 48 Calcein: 39 SPC (T98G): 43 Calcein: 21
% Inhibition: Calcein (T98G) (T98G cells): 21%
% Inhibition: Calcein (IMR32) (IMR32 cells): 39%

COc1ccccc1C(=O)N1CCN(c2cccc(Cl)c2)CC1 [IND-0021750]
% Inhibition: SPC (T98G) (PrP^C in T98G cells): MW: 330.8 % Inhibition: SPC (IMR32): 44 Calcein: 25 SPC (T98G): 52 Calcein: 21
% Inhibition: SPC (IMR32) (PrP^C in IMR32 cells): MW: 330.8 % Inhibition: SPC (IMR32): 44 Calcein: 25 SPC (T98G): 52 Calcein: 21
% Inhibition: Calcein (T98G) (T98G cells): 21%
% Inhibition: Calcein (IMR32) (IMR32 cells): 25%

Cc1cccc(Nc2nc(-c3ccncc3)cs2)c1 [IND-0022317]
% Inhibition: SPC (T98G) (PrP^C in T98G cells): MW: 267.4 % Inhibition: SPC (IMR32): 87 Calcein: 35 SPC (T98G): 65 Calcein: 5
% Inhibition: SPC (IMR32) (PrP^C in IMR32 cells): MW: 267.4 % Inhibition: SPC (IMR32): 87 Calcein: 35 SPC (T98G): 65 Calcein: 5
% Inhibition: Calcein (T98G) (T98G cells): 5%
% Inhibition: Calcein (IMR32) (IMR32 cells): 35%

Cc1cccc(N2CCN(C(=O)c3ccc4c(c3)OCO4)CC2)c1C [IND-0023025]
% Inhibition: SPC (T98G) (PrP^C in T98G cells): MW: 338.4 % Inhibition: SPC (IMR32): 34 Calcein: 15 SPC (T98G): 34 Calcein: 26
% Inhibition: SPC (IMR32) (PrP^C in IMR32 cells): MW: 338.4 % Inhibition: SPC (IMR32): 34 Calcein: 15 SPC (T98G): 34 Calcein: 26
% Inhibition: Calcein (T98G) (T98G cells): 26%
% Inhibition: Calcein (IMR32) (IMR32 cells): 15%

COc1ccc(C(NC(C)=O)c2ccc3cccnc3c2O)cc1 (stereo not drawn) [IND-0058521]
% Inhibition: SPC (T98G) (PrP^C in T98G cells): MW: 322.4 % Inhibition: SPC (IMR32): 56 Calcein: 17 SPC (T98G): 49 Calcein: 3
% Inhibition: SPC (IMR32) (PrP^C in IMR32 cells): MW: 322.4 % Inhibition: SPC (IMR32): 56 Calcein: 17 SPC (T98G): 49 Calcein: 3
% Inhibition: Calcein (T98G) (T98G cells): 3%
% Inhibition: Calcein (IMR32) (IMR32 cells): 17%

CCS(=O)(=O)c1ncc(Cl)c(C(=O)Nc2ccccc2C)n1 [IND-0081396]
% Inhibition: SPC (T98G) (PrP^C in T98G cells): MW: 339.8 % Inhibition: SPC (IMR32): 91 Calcein: 15 SPC (T98G): −5 Calcein: −8
% Inhibition: SPC (IMR32) (PrP^C in IMR32 cells): MW: 339.8 % Inhibition: SPC (IMR32): 91 Calcein: 15 SPC (T98G): −5 Calcein: −8
% Inhibition: Calcein (T98G) (T98G cells): −8%
% Inhibition: Calcein (IMR32) (IMR32 cells): 15%

CCS(=O)(=O)c1ncc(Cl)c(C(=O)Nc2ccc(F)cc2)n1 [IND-0081737]
% Inhibition: SPC (T98G) (PrP^C in T98G cells): MW: 343.8 % Inhibition: SPC (IMR32): 41 Calcein: 18 SPC (T98G): −10 Calcein: −4
% Inhibition: SPC (IMR32) (PrP^C in IMR32 cells): MW: 343.8 % Inhibition: SPC (IMR32): 41 Calcein: 18 SPC (T98G): −10 Calcein: −4
% Inhibition: Calcein (T98G) (T98G cells): −4%
% Inhibition: Calcein (IMR32) (IMR32 cells): 18%

N#Cc1c(NC(=O)CCc2cccs2)sc2c1CCCC2 [IND-0082865]
% Inhibition: SPC (T98G) (PrP^C in T98G cells): MW: 316.4 % Inhibition: SPC (IMR32): 60 Calcein: 37 SPC (T98G): 51 Calcein: 17
% Inhibition: SPC (IMR32) (PrP^C in IMR32 cells): MW: 316.4 % Inhibition: SPC (IMR32): 60 Calcein: 37 SPC (T98G): 51 Calcein: 17
% Inhibition: Calcein (T98G) (T98G cells): 17%
% Inhibition: Calcein (IMR32) (IMR32 cells): 37%

COc1ccc(C(=O)NCc2cc(C)nc3ccccc23)cc1 [IND-0086056]
% Inhibition: SPC (T98G) (PrP^C in T98G cells): MW: 306.4 % Inhibition: SPC (IMR32): 45 Calcein: 18 SPC (T98G): 49 Calcein: 20
% Inhibition: SPC (IMR32) (PrP^C in IMR32 cells): MW: 306.4 % Inhibition: SPC (IMR32): 45 Calcein: 18 SPC (T98G): 49 Calcein: 20
% Inhibition: Calcein (T98G) (T98G cells): 20%
% Inhibition: Calcein (IMR32) (IMR32 cells): 18%

CC(C)c1ccc(NC(=O)Nc2cnccn2)cc1 [IND-0088907]
% Inhibition: SPC (T98G) (PrP^C in T98G cells): MW: 256.3 % Inhibition: SPC (IMR32): 4 Calcein: 9 SPC (T98G): 46 Calcein: 27
% Inhibition: SPC (IMR32) (PrP^C in IMR32 cells): MW: 256.3 % Inhibition: SPC (IMR32): 4 Calcein: 9 SPC (T98G): 46 Calcein: 27
% Inhibition: Calcein (T98G) (T98G cells): 27%
% Inhibition: Calcein (IMR32) (IMR32 cells): 9%

Cc1ncc2n1-c1ccc(Cl)cc1C(c1ccccc1F)=NC2 [Midazolam, reference compound]
T1/2, control incubations [1]: 0.183 h
